Experimental findings from US20250381168A1, “VLA4 INHIBITORS AND USES THEREOF” (Washington University, priority 2022, published 2025) are described below.

One experiment concerns the target VLA-4 (a4b1) (Homo sapiens (Human), UniProt P05556+P13612). The experiment can be described thus: sVCAM flow cytometry cell-based assay (inhibition of soluble VCAM-1 binding to G2 ALL cells).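 Further: compounds at 0.1 to 1000 nM preincubated 30 min with G2 ALL cells, then VCAM/Fc added for 30 min, bound VCAM-1 detected by PE secondary antibody, percent binding cells by flow cytometry.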 For orientation: In flow cytometry, cells or beads pass a laser one at a time.
Experiment [1] deals with hematopoietic stem/progenitor cells (HSPCs). Kind of experiment: HSPC mobilization into peripheral blood, colony forming unit (CFU) assay. On HSPC mobilization, result in words: test concentration or dose not given here. On No. CFU (×10^3)/mL ± SD, 6 hr: test concentration or dose not given here. The note with it: mice; for No. CFU (×10^3)/mL ± SD, 0.25 hr / No. CFU (×10^3)/mL ± SD, 2 hr / No. CFU (×10^3)/mL ± SD, 4 hr / No. CFU (×10^3)/mL ± SD, 1 hr / No. CFU (×10^3)/mL ± SD, 8 hr / No. CFU (×10^3)/mL ± SD, 6 hr: peripheral blood; for No. CFU (×10^3)/mL ± SD, 0.25 hr: 0.25 hr post dose (TABLE 5); for No. CFU (×10^3)/mL ± SD, 1 hr: 1 hr post dose (TABLE 20); for No. CFU (×10^3)/mL ± SD, 8 hr: 8 hr post dose (TABLE 20).

The mark [2] stands for this setting: as listed in TABLE 5, read-out: sVCAM IC50.
Where [3] appears, read: inhibition of sVCAM-1 binding to human G2 ALL cells (TABLE 3), read-out: SVCAM-1, IC50.
[4] abbreviates: single s.c. injection, 2 hr post dose (TABLE 5).
[5] abbreviates: single s.c. injection, 4 hr post dose (TABLE 5).
Where [6] appears, read: single dose, 4 hr post dose (TABLE 20).

“Also recorded” adds a separate entry of the source. Where two headings read alike, the source gives them in different places.

Sequence of VLA-4 (a4b1) (P13612 34-1032): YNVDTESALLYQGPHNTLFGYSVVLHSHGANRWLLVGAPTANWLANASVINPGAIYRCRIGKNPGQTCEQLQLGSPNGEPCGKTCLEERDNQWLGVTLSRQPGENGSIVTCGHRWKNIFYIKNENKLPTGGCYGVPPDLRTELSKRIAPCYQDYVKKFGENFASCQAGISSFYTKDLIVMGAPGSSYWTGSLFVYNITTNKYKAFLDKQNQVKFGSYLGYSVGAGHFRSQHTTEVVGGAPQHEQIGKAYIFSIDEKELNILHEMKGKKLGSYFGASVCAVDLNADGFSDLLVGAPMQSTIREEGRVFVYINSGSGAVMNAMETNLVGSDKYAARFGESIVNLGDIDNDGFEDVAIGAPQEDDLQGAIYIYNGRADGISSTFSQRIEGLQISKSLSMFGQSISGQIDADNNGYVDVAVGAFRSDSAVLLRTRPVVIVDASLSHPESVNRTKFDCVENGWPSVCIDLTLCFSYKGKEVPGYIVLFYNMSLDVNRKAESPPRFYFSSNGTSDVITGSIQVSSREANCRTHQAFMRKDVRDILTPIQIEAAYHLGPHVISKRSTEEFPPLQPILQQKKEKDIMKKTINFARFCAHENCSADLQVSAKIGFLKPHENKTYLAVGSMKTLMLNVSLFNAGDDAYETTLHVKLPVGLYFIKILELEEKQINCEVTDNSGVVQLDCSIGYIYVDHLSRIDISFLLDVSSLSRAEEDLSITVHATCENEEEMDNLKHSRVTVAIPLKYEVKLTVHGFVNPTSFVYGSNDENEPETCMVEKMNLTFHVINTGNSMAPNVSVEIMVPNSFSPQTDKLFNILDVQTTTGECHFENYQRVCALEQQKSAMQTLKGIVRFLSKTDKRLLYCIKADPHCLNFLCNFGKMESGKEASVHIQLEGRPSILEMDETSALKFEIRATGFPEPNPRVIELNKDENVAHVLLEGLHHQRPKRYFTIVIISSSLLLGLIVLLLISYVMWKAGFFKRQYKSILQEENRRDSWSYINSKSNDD
Sequence of VLA-4 (a4b1) (P05556 21-798): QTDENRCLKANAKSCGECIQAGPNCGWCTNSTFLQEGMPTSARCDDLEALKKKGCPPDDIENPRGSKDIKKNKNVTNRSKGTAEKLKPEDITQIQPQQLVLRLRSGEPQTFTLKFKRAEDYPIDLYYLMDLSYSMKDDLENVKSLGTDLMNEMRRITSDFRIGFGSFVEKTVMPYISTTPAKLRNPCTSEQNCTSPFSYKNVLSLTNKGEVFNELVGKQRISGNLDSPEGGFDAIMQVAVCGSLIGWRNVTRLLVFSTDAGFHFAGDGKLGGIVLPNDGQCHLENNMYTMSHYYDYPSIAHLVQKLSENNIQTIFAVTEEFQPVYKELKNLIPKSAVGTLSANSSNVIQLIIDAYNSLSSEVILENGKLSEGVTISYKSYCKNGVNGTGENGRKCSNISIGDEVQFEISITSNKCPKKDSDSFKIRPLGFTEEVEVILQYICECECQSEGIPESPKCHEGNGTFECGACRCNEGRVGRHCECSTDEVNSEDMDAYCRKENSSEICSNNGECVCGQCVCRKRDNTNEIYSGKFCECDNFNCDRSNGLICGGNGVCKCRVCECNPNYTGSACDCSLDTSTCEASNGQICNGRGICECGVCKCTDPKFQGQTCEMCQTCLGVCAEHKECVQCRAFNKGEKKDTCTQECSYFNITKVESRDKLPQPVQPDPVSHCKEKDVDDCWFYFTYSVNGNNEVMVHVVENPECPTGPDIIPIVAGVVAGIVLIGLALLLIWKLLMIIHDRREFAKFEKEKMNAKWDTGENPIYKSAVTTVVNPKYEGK
Protocol for VLA-4 (a4b1): VLA-4 (a4b1) inhibitor compounds were tested for their ability to inhibit the binding of soluble VCAM-1 to human G2 acute lymphoblastic leukemia (ALL) cells. Briefly, G2 ALL cells are pre-incubated with increasing concentrations (0.1 to 1000 nM) of compounds for 30 minutes. Soluble VCAM/Fc chimera protein (R & D systems) is then added to the mixture and the cells incubated for an additional 30 minutes. Afterwards, cells are washed and VCAM-1 is detected using a PE-conjugated secondary polyclonal antibody. In each experiment, an aliquot of cells are stained with isotype control antibodies to serve as a negative control. The percentage of VCAM-1 binding cells was then determined by flow cytometry.

On to `CCOCc1cc(OC)c(-c2ccc(C[C@H](NC(=O)c3c(Cl)cc(C(=O)O)cc3Cl)C(=O)O)cc2)c(OC)c1` [Example C3], for which the IC50 at VLA-4 (a4b1) (setting [2]) and at VLA-4 (a4b1) (setting [3]) was 1.35 nM each time. In experiment [1] (single s.c. injection), the “No. CFU (×10^3)/mL ± SD, 0.25 hr” value is recorded as 3.69 ± 0.52 (×10^3)/mL. The “No. CFU (×10^3)/mL ± SD, 2 hr” value in experiment [1] (setting [4]) is 1.58 ± 0.74 (×10^3)/mL. Moreover, the “No. CFU (×10^3)/mL ± SD, 4 hr” value in experiment [1] (setting [5]) was 0.30 ± 0.11 (×10^3)/mL.
On to `COc1cccc(OC)c1-c1ccc(C[C@H](NC(=O)c2c(Cl)cccc2Cl)C(=O)O)cc1` [TR-14035], for which the IC50 is 247 nM on VLA-4 (a4b1) (as listed in TABLE 20, read-out: sVCAM IC50) and 247 nM on VLA-4 (a4b1) (setting [3]). For the same compound, the “No. CFU (×10^3)/mL ± SD, 1 hr” value in experiment [1] (single dose) is 0.54 ± 0.15 (×10^3)/mL. In experiment [1] (setting [6]), the “No. CFU (×10^3)/mL ± SD, 4 hr” value is recorded as 0.18 ± 0.13 (×10^3)/mL. The “No. CFU (×10^3)/mL ± SD, 8 hr” value in experiment [1] (single dose) is reported as 0.10 ± 0.05 (×10^3)/mL.
`CCOCc1cc(OC)c(-c2ccc(C[C@H](NC(=O)c3c(F)cccc3F)C(=O)O)cc2)c(OC)c1` [Firategrast, firategrast]: in experiment [1] (single dose), the “No. CFU (×10^3)/mL ± SD, 1 hr” value is 0.34 ± 0.12 (×10^3)/mL and the “No. CFU (×10^3)/mL ± SD, 8 hr” value is 0.24 ± 0.14 (×10^3)/mL. For the same compound, in experiment [1] (setting [6]), the “No. CFU (×10^3)/mL ± SD, 4 hr” value is reported as 0.24 ± 0.14 (×10^3)/mL.
Take `COc1cc(CO)cc(OC)c1-c1ccc(C[C@H](NC(=O)c2c(Cl)cc(C(=O)O)cc2Cl)C(=O)O)cc1` [Example C2]: the IC50 at VLA-4 (a4b1) (setting [2]) and at VLA-4 (a4b1) (setting [3]) was 3.83 nM in each case. For the same compound, in experiment [1] (single s.c. injection), the “No. CFU (×10^3)/mL ± SD, 0.25 hr” value is 4.08 ± 1.66 (×10^3)/mL. Besides, in experiment [1] (setting [4]), the “No. CFU (×10^3)/mL ± SD, 2 hr” value is 2.87 ± 1.47 (×10^3)/mL. Further, the “No. CFU (×10^3)/mL ± SD, 4 hr” value in experiment [1] (setting [5]) is given as 0.53 ± 0.30 (×10^3)/mL.
As to `COCCOCCOCCOCCOCCOCCOCCOCCOCCOCCOCCOCCOCCOCCOCCOCCOCc1cc(OC)c(-c2ccc(C[C@H](NC(=O)[C@@H]3CCCN3S(=O)(=O)c3cc(Cl)cc(Cl)c3)C(=O)O)cc2)c(OC)c1` [Example C14, (S)-3-(4′-(2,5,8,11,14,17,20,23,26,29,32,35,38,41,44,47,50-heptadecaoxahenpentacontyl)-2′,6′-dimethoxy-[1,1′-biphenyl]-4-yl)-2-((S)-1-((3,5-dichlorophenyl)sulfonyl)pyrrolidine-2-carboxamido)propanoic Acid], the IC50 on VLA-4 (a4b1) (as listed in TABLE 9, read-out: sVCAM IC50) came to 0.702 nM; at VLA-4 (a4b1) (as listed in TABLE 10, read-out: sVCAM IC50), 0.702 nM; on VLA-4 (a4b1) (setting [3]), 0.702 nM. Besides, in experiment [1] (single dose), the “HSPC mobilization, result in words” value was “returning to baseline by 4 hours and clearly at baseline by 6 hours; also recorded: returning to baseline at 4 hours and affords no mobilization effects at 6 hours”. In addition, the “No. CFU (×10^3)/mL ± SD, 2 hr” value in experiment [1] (single dose, 2 hr post dose (TABLE 9)) is on record as 3.17 ± 1.17 (×10^3)/mL; in experiment [1] (single dose, 2 hr post dose (TABLE 10)), 3.40 ± 1.42 (×10^3)/mL. Besides, the “No. CFU (×10^3)/mL ± SD, 4 hr” value in experiment [1] (single dose, 4 hr post dose (TABLE 9)) was 0.50 ± 0.25 (×10^3)/mL; in experiment [1] (single dose, 4 hr post dose (TABLE 10)), 0.82 ± 0.47 (×10^3)/mL. Moreover, the “No. CFU (×10^3)/mL ± SD, 6 hr” value is on record as 0.08 ± 0.11 (×10^3)/mL in experiment [1] (single dose, 6 hr post dose (TABLE 9)) and 0.25 ± 0.16 (×10^3)/mL in experiment [1] (single dose, 6 hr post dose (TABLE 10)).
